The values below come from patent US7977304B2, “FK 228 derivates as HDAC inhibitors” (University of Southampton Highfield, priority 2005, dated 2011).

The term IC50 denotes the midpoint of a concentration-inhibition curve.

Molecules are shown by their SMILES.

The test system of assay [1] is MCF7 human breast cancer cells. Kind of assay: Activity Assay 1: CyQuant cell proliferation assay, MCF7. In kind it is cell-based. How it is done: (§1) Method; Cell proliferation assays were performed using the CyQuant™ assay system (Molecular Probes, Inc. USA) according to the manufacturer's instructions. This system utilises a proprietary green fluorescent dye which undergoes strong fluorescent enhancement on binding cellular nucleic acids, to allow determination of cell number with a linear detection range between 50 to 250,000 cells. Estrogen receptor positive MCF7 breast cancer cells (ECAAC) and NHDF cells (Cambrex, UK) were plated in 96 well plates, at a density of 1000 cells in 100 μl of cell culture medium per well. Compounds were added a minimum of 5 hours later, in serial dilutions in cell culture medium, in 100 μl volumes at 2× final concentration. Six days later cell culture medium was removed by inversion of the plate onto blotting paper and cells were gently washed once with 200 μl PBS. […] Fluorescence was then measured for each well using a Cytofluor II Fluoresence Multiwell Plate Reader and CytoFluor II software with filters at 480 nm for excitation and 520 nm for emission maxima. Cell proliferation was determined for mean values of duplicate samples as percentages relative to untreated cell samples (=100%). […]
(§2) MCF7 and NHDF were incubated with the indicated concentrations of compounds. After 6 days cell growth relative to untreated cells (=100%) was determined using the CyQuant™ assay. […]

Assay [2] deals with normal human dermal fibroblasts (NHDF). Kind of assay: Activity Assay 1: CyQuant cell proliferation assay, NHDF. In kind it is cell-based. As to conditions: 144 h, read-out: mean IC50 for growth inhibition (±SD), NHDF. On the procedure: as §1, §2
The subject of assay [3] is HDAC responsive SV40 promoter. The assay can be described thus: Activity Assay 2: SV40 promoter-luciferase reporter in MCF7 derived 2.1.1 cells. In kind it is cell-based. Particulars: approx 16 hours. On the procedure: Method. We generated a stable clone derived from MCF7 cells containing an integrated reporter construct with the SV40 immediate early promoter cloned upstream of the luciferase gene. MCF7 cells were transfected with pGL2-Basic (SV40/luciferase reporter) (Promega, UK) and pcDNA3 (expresses neomycin resistance gene) using Transfast transfection reagent. After 24 hours, cells were collected by trypsinisation and plated at low density. The following day, G418 was added to the growth medium. After ˜21 days, individual drug-resistant colonies were isolated and cultured. […] To test the effects of compound 001, 2.1.1 cells were incubated with various concentrations of compound 001 or an equivalent amount of DMSO as a control. The following day, cells were collected and luciferase activity detected using the Promega luciferase assay system and a TopCount (Perkin-Elmer).
MCF7 derived cells containing a stably integrated SV40 promoter-luciferase reporter plasmid were treated with the indicated concentrations of compound 001, or DMSO as a solvent control. Luciferase activity was determined after approx 16 hours. The data shown are derived from a single experiment performed in duplicate and are representative of multiple experiments.

Assay [4] deals with histone acetylation in MCF7 breast cancer cells. Kind of assay: Activity Assay 4: histone acetylation by immunoblotting, MCF7. In kind it is cell-based. Particulars: MCF7, 24 hours. On the procedure:
(§3) Method; Cardiac myocytes were prepared as described in Chembiochem. 2005 January; 6(1):162-70 and incubated with the indicated concentrations of compound 001 for 24 hours. MCF7 cells were incubated with the indicated concentrations of compound 001 for 24 hours. Expression of total histone H4 acetylation, or specific acetylation of Histone H4-K8 or Histone H3-K9 was analysed by Western blotting, as previously described (Brimmell et al. Br J Cancer. 1999 November; 81(6):1042-51) using antibodies from Upstate Biotech.
(§4) (A) MCF7 cells were incubated with compound 001 for 24 hours. Histone H4 acetylation was measured by immunoblotting. (B) Cardiac myocytes were incubated with indicated compound 001 for 24 hours. Histone H4 acetylation was measured by immunoblotting. (C) MCF7 cells were incubated with compound 001 for 24 hours. Histone H3-K9 and Histone H4-K8 acetylation was measured by immunoblotting
(In western blotting, separated proteins are transferred to a membrane and probed.)

In assay [5] the test system is histone acetylation in cardiac myocytes. Kind of assay: Activity Assay 4: histone acetylation by immunoblotting, cardiac myocytes. Particulars: 24 hours. In kind it is cell-based. On the procedure: as §3, §4
For assay [6], the system named is HDAC (Hela Nuclear Extract). Kind of assay: Activity Assay 5: in vitro HDAC fluorescent activity assay (Biomol kit). Format: biochemical. Particulars: compounds reduced with DTT prior to analysis, 37° C., 1 hour, read-out: Inhibition of HDAC activity IC50. How it is done:
We analysed the ability of compounds to inhibit in vitro HDAC activity. In vitro HDAC assays were performed using a HDAC fluorescent activity assay kit (Biomol, UK) according to the manufacturer's instructions. Compounds were reduced prior to analysis; 1 mM compound was reduced with 30 mM DTT in DMSO overnight at room temperature, protected from light. Reactions were then set up in a 96-well plate. […] Serial dilutions were set up for each compound. Reactions containing Hela extract only and assay buffer only were also set up. 25 μl diluted Fluor de Lys™ substrate (100-fold in assay buffer) was added to each reaction, which were then incubated at 37° C. for 1 hour. The reaction was stopped by addition of 50 μl Fluor de Lys™ Developer (20-fold dilution in assay buffer, plus TSA diluted 100-fold). […] Inhibition of in vitro HDAC activity was determined for mean values of duplicate samples as percentages relative to HeLa extract only reactions. IC50 values were calculated using GraphPad Prism software.

A further assay concerns MCF7 breast cancer cells. The assay can be described thus: Activity Assay 6: CyQuant cell growth inhibition, MCF7. In kind it is cell-based. As to conditions: Homo sapiens, 144 h, MCF7, 6 days. On the procedure:
(§5) We analysed the ability of compounds to inhibit the in vitro growth of human cancer cells. Cell proliferation assays were performed using the CyQuant™ assay system (Molecular Probes, Inc. USA) according to the manufacturer's instructions. MCF7 breast, A2780 ovarian and PC3 and LNCAP prostate cancer cells were plated in 96 well plates, at a density of 1000 cells for MCF7 cells or 5000 cells for M780/PC3/LNCAP cells, in 100 μl of cell culture medium per well. Compounds were added a minimum of 5 hours later, in serial dilutions in cell culture medium, in 100 μl volumes at 2× final concentration. Cell culture medium was removed after 4 (A2780, PC3 or LNCAP cells) or 6 days (MCF7 cells) by inversion of the plate onto blotting paper and cells were gently washed once with 200 μl PBS. Plates were frozen immediately for a minimum of one hour at −80° C. and then thawed. 200 μl of 1× CyQuant cell lysis buffer supplemented with dye, made according to the manufacturer's instruction, was added immediately to each well and incubated at room temperature for 3-5 minutes. Fluorescence was then measured for each well using a Cytofluor II Fluoresence Multiwell Plate Reader and CytoFluor II software with filters at 480 nm for excitation and 520 nm for emission maxima. Cell proliferation was determined for mean values of duplicate samples as percentages relative to untreated cell samples (=100%). Growth inhibition curves were used to derive IC50 values.

Assay [7] concerns PC3 prostate cancer cells. The assay can be described thus: Activity Assay 6: CyQuant cell growth inhibition, PC3. In kind it is cell-based. Particulars: Homo sapiens, 96 h, PC3, 4 days. On the procedure:
as §5

Consider `CC(C)[C@H]1NC(=O)[C@H]2CSSCC/C=C/[C@H](CC(=O)N[C@H](C)C(=O)N2)OC(=O)CNC1=O` [Compound 9A, (E)-(1S,7R,10S,21R)-7-isopropyl-21-methyl-2-oxa-12,13-dithia-5,8,20,23-tetraaza-bicyclo[8.7.6]tricos-16-ene-3,6,9,19,22-pentaone], for which the IC50 came out at 121 ± 52 nM in assay [1] (Homo sapiens, 144 h, MCF7, 6 days, CyQuant, mean ± SD of multiple experiments, read-out: mean IC50 for growth inhibition (±SD), MCF7); 420 ± 42 nM in assay [2]; 9.9 nM in assay [6]; 36.6 nM with MCF7 breast cancer cells; 50 nM in assay [7]. Moreover, the “potency of cancer cell growth inhibition compared with SAHA” value in assay [1] (MCF7, p=0.003, Student's t-test) is on record as “significantly more potent than SAHA”. Also, the “activity of the HDAC responsive SV40 promoter (luciferase activity)” value in assay [3] is “effectively reverses HDAC-mediated repression of the SV40 immediate early promoter”. The “Histone H3-K9 and Histone H4-K8 acetylation, MCF7 cells” value in assay [4] is “specific Histone H3-K9 and Histone H4-K8 acetylation”. Moreover, the “Histone H4 acetylation, MCF7 cells” value in assay [4] is on record as “induces the accumulation of acetylated histone H4”. In addition, the “Histone H4 acetylation, cardiac myocytes” value in assay [5] is “induces the accumulation of acetylated histone H4”.
